From patent US10940159B2, “Combination immediate/delayed release delivery system for short half-life pharmaceuticals including remogliflozin” (priority 2010, dated 2021)
Where two headings read alike, the source gives them in different places.

Columns and labels:
[1] = Half-life, absorption window and permeability; assay type: in vivo; conditions: for half-life: human
[2] = 12 week clinical studies in T2DM, once daily and twice daily dosing; assay type: in vivo, human
Source text: To date, studies have assessed the efficacy, safety and tolerability up to 12 weeks, with varying efficacy so there is a need to characterize the profile of a number of selected formulated doses over a 12-week period. […] However to minimize the time which subjects may have sub-optimal glycemic control, the double blind study medication has been limited to 12 weeks duration. In addition, criteria have been included to allow the introduction of rescue therapy after 6 weeks for those subjects who have a high FP. […] Furthermore, there is evidence that at these doses, there may also be clinically relevant weight loss, a key requirement for new T2DM therapies (20). As doses above 250 mg BID may be associated with relatively small incremental benefits on glycemia and weight loss and there is a trend for better tolerability at lower doses, future studies could have total daily doses less than 500 mg per day. […] It is believed that the primary mechanism for this isolated increase in LDL-c is due a combination of 1) hemoconcentration as a result of the diurectic effect, similar to that seen with diuretics (21, 22) and 2) SGLT2 overnight inhibition. […] Further, a combination IR/SR dose given QD in the morning may also provide meaningful benefits on glycemia and weight loss. From a safety perspective, other than small effects observed on the lipid profile and hematocrit, there was little difference in the safety profile based on the frequency of administration.

[3] = reduced from 9.0%; at mealtime in combination with a sulfonylurea; P<0.0001; cited from earlier work

Compound	half-life ([1]; in vivo, read-out: half-life (t½) (converted)) [h]	permeability in the lower portion of the gastrointestinal tract ([1]; in vivo)	half-life ([1]; in vivo, read-out: half-life) [h]	half-life ([1]; plasma, read-out: half-life (t½) (converted)) [h]	window of absorption ([1]; upper gastrointestinal tract, depending upon food intake, individual differences) [h]	LDL-c ([2]; 250 mg and 500 mg bid doses)	LDL-c ([2]; higher QD doses)	hematocrit (surrogate marker for hemoconcentration) ([2]; higher QD doses)	hypoglycemic events ([2]; human, in vivo)	A1C levels [3] [%]
CCOC(=O)OC[C@H]1O[C@@H](Oc2nn(C(C)C)c(C)c2Cc2ccc(OC(C)C)cc2)[C@H](O)[C@@H](O)[C@@H]1O [remogliflozin etabonate, 5-methyl-4-[4-(1-methylethoxy)benzyl]-1-(1-methylethyl)-1H-pyrazol-3-yl 6-O-(ethoxycarbonyl)-β-D-glucopyranoside]	1.5	intrinsically poor permeability								
Cc1c(Cc2ccc(OC(C)C)cc2)c(O[C@@H]2O[C@H](CO)[C@@H](O)[C@H](O)[C@H]2O)nn1C(C)C [remogliflozin]		poor permeability	1.5 to 2	1.5	3 to 6	significant increases	no corresponding increases	increases in hematocrit	very little evidence	
insulin lispro: rapid-acting insulin analog										7.1
